Data as given in patent US20220281860A1, “COMPOUNDS AND METHODS OF TREATING RNA-MEDIATED DISEASES” (Arrakis Therapeutics, Inc., priority 2016, published 2022).
Structures can show the parent of a compound that is named as a salt.

Assays:
[1] = system: RNA3WJ_0.0.0_5IB_3FAM (3WJ_0.0.0_5IB_3FAM) RNA three way junction; assay: Thermal shift binding assay; conditions: for Melt. Temp. with cmpd / Shift melt. Temp.: RNA sequence 3WJ_0.0.0_5IB_FAM; for Melt. Temp. with cmpd: melting temperature in presence of compound; for Shift melt. Temp.: melting temperature with cmpd minus without cmpd
From the text: (§1) Purpose: Test binding of compounds for RNA three way junction (for example, a construct of 38 nt). Thermal shift assay based on established fluorescence quenching assay utilizing FAM as fluorescence tag and Iowa Black as quencher. Tags were attached at the 3′ and 5′ end, respectively. Stable formation of 3WJ upon compound binding would lead to quenching of the FAM fluorescence due to close proximity of the Iowa Black tag. Thermal unfolding leads to increase of fluorescence emission. Assay readout: FAM (465-510 nm) Thermal Shift.
(§2) Assay sample buffer used: 10 mM CacoK pH 7.2, 30 mM NaCl. Buffer preparation in Dnase/Rnase Free distilled water (Gibco Life Technologies).
(§3) Tool compounds provided as dry powder are prepared as 50 mM stock solution in 100% d6-DMSO. Stock solutions of 50 mM concentration in d6-DMSO are stored at RT.
(§4) Sample plate: Roche, Light Cycler480 Multiwell Plate96, white, REF 04729692001. (Dilution plate: Greiner REF 781101, PS-Microplate, 384 well, clear). Thermal Shift device: Roche, Light Cycler480.
(§5) Daily fresh (10 ml): 1 ml 100 mM CacoK pH 7.2 and 0.3 ml 1 M NaCl filled up to 10 ml with Dnase/Rnase Free distilled water.
(§6) Dilute the RNA 1:10 (final 10 μM) in Assay Buffer.
(§7) Heat up the diluted RNA up to 90° C. for 5 min (sealed Eppendorf Tube).
(§8) Cool down the RNA probe slowly to RT.
(§9) Dilute the compounds to 800 μM in DMSO (Assay: 8 μM).
(§10) 78.4 μL Assay Buffer are pipetted into Greiner REF 781101, PS-Microplate, 384 (each well needed).
(§11) Add 0.8 μL of the RNA-Solution ([…]).
(§12) Add 0.8 μL Compound-Solution ([…]).
(§13) Final concentrations in the sample: 1 μM RNA, 8 μM compound, 1% DMSO
(§14) Pipet 20 μL Sample Solution into Roche, Light Cycler480 Multiwell Plate96, white, REF 04729692001.
(§15) When sample transfer is finished, seal the plate with a clear topseal (part of REF 04729692001).
(§16) Centrifuge the plate with a table-top device to spin down the samples.
(§17) Measure the 96 plate with the LightCycler480 (Channel: 480/510 nm; Temperature: 41-91° C.).
(§18) Analyse measurement-data with the MeltingCurveGenotyping Mode.
(§19) Settings: Acquisition mode: continuous; Ramp rate: 0.1 C.°/sec; Acquisition: 6/C.° Melt Curve Genotyping for All Samples
(§20) Melting curves analysis show melting temperature (Tm) of ˜51° C. Range of RNA concentrations was tested and assay window was determined (conc. range of 0.5-1 μM yields best results). The choice of buffer also affected the Tm. RNA constructs were tested under different buffer conditions (especially in presence of salt) in the thermal shift assay. […] CacoK with 30 mM salt at 1 μM RNA conc. was used to assess compound effects on 3WJ stability. […] These conditions were used for screening test compounds.

[2] = system: 3WJ_0.0.0_5IB_3FAM construct; assay: Fluorescence quenching binding assay; conditions: at conc. >5 μM, FIG. 107
Method: This assay will be used to test binding of compounds for RNA three way junction (such as a 38 nt construct). This is a fluorescence quenching assay utilizing FAM as fluorescence tag and Iowa Black as quencher. Tags are attached at the 3′ and 5′ end, respectively. Stable formation of MW upon compound binding would lead to quenching of the FAM fluorescence due to close proximity of the Iowa Black tag. Assay readout: FAM (485-520 nm) Fluorescence Intensity.
as §2, §3
Sample plate: Greiner cat #784076, black, 384 (Dilution plate: Greiner REF 781101, PS-Microplate, 384 well, clear). Fluorescence Intensity device: Envision 1040285
Daily fresh (10 ml): 1 ml 100 mM CacoK pH 7.2 and 0.3 ml 1 M NaCl filled up to 10 ml with Dnase/Rnase Free distilled water
as §6
Heat up the diluted RNA up to 90° C. for 5 min (sealed Eppendorf Tube). […]
Calibration of the expected fluorescence signal at various RNA concentrations in either CacoK or NaPO4 buffers was performed first. Experiments in buffers containing salt show distinct fluorescence quenching behavior. […]

RNA3WJ_3.0.0_5IB_3FAM = assay: Thermal shift binding assay; conditions: RNA:ligand ratios 1:1, 1:3
From the text: as §1, §2, §3, §4, §5, §6, §7, §8, §9, §10, §11
Add 0.8 μL Compound-Solution ([…]). […]
as §14, §15, §16, §17, §18, §19, §20

[3] = system: RNA3WJ_0.0.0_5IB_3FAM (3WJ_0.0.0_5IB_3FAM) RNA three way junction; assay: Thermal shift binding assay; conditions: RNA:ligand ratios 1:1, 1:3, raw and normalized data
[4] = system: RNA3WJ_1.0.0_5IB_3FAM (cis 3WJ with one unpaired nucleotide); assay: Thermal shift binding assay; conditions: RNA3WJ_1.0.0_5IB 3FAM; RNA:ligand ratios 1:1, 1:3
From the text: as §1, §2, §3, §4, §5, §6, §7, §8, §9, §10, §11, §12, §13, §14, §15, §16, §17, §18, §19, §20
Compounds Ark0000013 and Ark0000014 were also tested in the thermal shift assay against three RNA 3WJ constructs, A) RNA3WJ_1.0.0_5IB_3FAM (cis 3WJ with one unpaired nucleotide); B) Split3WJ.1_up_5IB+Split3WJ.1_down_3FAM (trans 3WJ as 1:1 mix); and C) Split3WJ.2_up_5IB+Split3WJ.2_down_3FAM (trans 3WJ as 1:1 mix).

[5] = RNA3WJ_0.0.0_5IB_3FAM, 1 μM RNA, 8 μM compound, 1% DMSO, 10 mM CacoK pH 7.2, 30 mM NaCl

Compound	Temp. Shift [° C.] [1, 5]	Melt. Temp. with cmpd [1]	Shift melt. Temp. [1]	further results
4-((2S,4S)-4-azido-2-(methyl(12-methyl-13-oxo-15-(2,7,15-tris(8-aminooctanamido)-9,10-[1,2]benzenoanthracen-9(10H)-yl)-3,6,9-trioxa-12-azapentadecyl)carbamoyl)pyrrolidine-1-carbonyl)benzenesulfonyl fluoride [ARK000032]	+15.0 °C	75.1 °C	+15.0 °C	
CC(C)(C)OC(=O)NCCCC[C@@H](NC(=O)OC(C)(C)C)C(=O)Nc1ccc2c(c1)C1(CCC(=O)NCCOCCOCCN)c3cc(NC(=O)[C@@H](CCCCNC(=O)OC(C)(C)C)NC(=O)OC(C)(C)C)ccc3C2c2ccc(NC(=O)[C@@H](CCCCNC(=O)OC(C)(C)C)NC(=O)OC(C)(C)C)cc21 [ARK000023]		60.7 °C	+0.6 °C	
CN(CCOCCOCCN(C)C(=O)[C@@H]1C[C@H](N=[N+]=[N-])CN1C(=O)CCc1ccc(S(=O)(=O)F)cc1)C(=O)CCC12c3cc(NC(=O)CCCCCCCN)ccc3C(c3ccc(NC(=O)CCCCCCCN)cc31)c1ccc(NC(=O)CCCCCCCN)cc12 [ARK000028]		82.3 °C	+22.0 °C	
[N-]=[N+]=NC[C@H]1O[C@H](O[C@@H]2[C@@H](O)[C@H](O[C@H]3O[C@H](CN)[C@@H](O)[C@H](O)[C@H]3O)[C@@H](N)C[C@H]2N)[C@H](O)[C@@H](N)[C@@H]1O [Ark000007, 6″-Azido-kanamycin A hydrochloride salt]	~5 °C			Concentration dependent influence on the fluorescence signal (quenching effect) [2]: increase of quenching effect; Melting temp [° C.] + cmpd [1, 5]: 65.6 °C
C#CCCCC(=O)NC[C@H]1O[C@H](O[C@H]2[C@H](O)[C@@H](O[C@H]3O[C@H](CO)[C@@H](O)[C@H](N)[C@H]3O)[C@H](N)C[C@@H]2N)[C@H](O)[C@@H](O)[C@@H]1O [Ark000008]				Effect on melting temperature (in words) ([1]; 3WJ_0.0.0_5IB_3FAM RNA construct, FIG. 110): very small effect
CN(CCCN)CCCNC(=O)c1ccccc1 [Ark000039]				Effect in the melting curves (in words) (RNA3WJ_3.0.0_5IB_3FAM): lack of effect; Effect in the melting curves (in words) [3]: no significant effect; Effect in the melting curves (in words) [4]: lack of effect
N,N′,N″-(9-(1-((2S,4S)-4-azido-1-(3-(4-(fluorosulfonyl)benzoyl)pyrrolidin-2-yl)-2,11-dimethyl-1,12-dioxo-5,8-dioxa-2,11-diazatetradecan-14-yl)-9,10-dihydro-9,10-[1,2]benzenoanthracene-2,7,15-triyl)tris(azanediyl))tris(8-aminooctanamide) [ARK000031]	+24.1 °C	84.1 °C	+24.1 °C	
